target: T1, SMYD2 (Homo sapiens, UniProt Q9NRG4); experiment: SMYD2 Biochemical Assay (3H-SAM, biotinylated peptide substrate, Flashplate); conditions: Table 2; average of n = 1 to n = 50; read-out: SMYD2 Biochem IC50
T1 construct: Full length SMYD2 (NP 064582.2) was cloned; His6 (N, cleaved yes); FLAG (N); made in house; host or cells: Sf9 insect cells
From the text: S-adenosylmethionine (SAM), S-adenosylhomocysteine (SAH), bicine, Tween20, dimethylsulfoxide (DMSO), bovine skin gelatin (BSG), and Tris(2-carboxyethyl)phosphine hydrochloride (TCEP) were purchased from Sigma-Aldrich at the highest level of purity possible. ^3H-SAM was purchase from American Radiolabeled Chemicals with a specific activity of 80 Ci/mmol. 384-well streptavidin Flashplates were purchased from PerkinElmer.
Peptide was synthesized with a N-terminal linker-affinity tag motif and a C-terminal amide cap by 21st Century Biochemicals. The peptide was high-performance liquid chromatography (HPLC) purified to greater than 95% purity and confirmed by liquid chromatography mass spectrometry (LC-MS). The sequence was […](K-Biot)-amide. (SEQ ID No: 3)
Full length SMYD2 (NP 064582.2) was cloned into a pFastbac-Htb-lic vector with an N-terminal His6 tag and FLAG tag, preceded by a TEV protease cleavage site. The protein was expressed in Sf9 insect cells. Cells were resuspended in lysis buffer (25 mM HEPES-NaOH, pH 7.5, 200 mM NaCl, 5% glycerol, and 5 mM β-ME) and lysed by sonication. The protein was purified by Ni-NTA (Qiagen), followed by TEV cleavage to remove the His6 tag, subtractive Ni-NTA (Qiagen), and gel filtration chromatography using an […] (GE Healthcare). Purified protein was stored in 20 mM Tris-HCl, pH 8.0, 100 mM NaCl, and 1 mM TCEP.
The assays were all performed in a buffer consisting of 20 mM Bicine (pH=7.6), 1 mM TCEP, 0.005% Bovine Skin Gelatin, and 0.002% Tween20, prepared on the day of use. Compounds in 100% DMSO (1 ul) were spotted into a polypropylene 384-well V-bottom plates (Greiner) using a Platemate Plus outfitted with a 384-channel head (Thermo Scientific). DMSO (1 ul) was added to Columns 11, 12, 23, 24, rows A-H for the maximum signal control and 1 ul of SAH, a known product and inhibitor of SMYD2, was added to columns 11, 12, 23, 24, rows I-P for the minimum signal control. A cocktail (40 ul) containing the SMYD2 enzyme was added by Multidrop Combi (Thermo-Fisher). The compounds were allowed to incubate with SMYD2 for 30 min at room temperature, then a cocktail (10 ul) containing ^3H-SAM and peptide was added to initiate the reaction (final volume=51 ul). The final concentrations of the components were as follows: SMYD2 was 1.5 nM, ^3H-SAM was 10 nM, and peptide was 60 nM, SAH in the minimum signal control wells was 1000 uM, and the DMSO concentration was 2%. The assays were stopped by the addition of non-radioactive SAM (10 ul) to a final concentration of 600 uM, which dilutes the ^3H-SAM to a level where its incorporation into the peptide substrate is no longer detectable. 50 ul of the reaction in the 384-well polypropylene plate was then transferred to a 384-well Flashplate and the biotinylated peptides were allowed to bind to the streptavidin surface for at least 1 hour before being washed three times with 0.1% Tween20 in a Biotek ELx405 plate washer. The plates were then read in a PerkinElmer TopCount plate reader to measure the quantity of ^3H-labeled peptide bound to the Flashplate surface, measured as disintegrations per minute (dpm) or alternatively, referred to as counts per minute (cpm).
Where dpm=disintegrations per minute, cmpd=signal in assay well, and min and max are the respective minimum and maximum signal controls.
Where top and bottom are the normally allowed to float, but may be fixed at 100 or 0 respectively in a 3-parameter fit. The Hill Coefficient normally allowed to float but may also be fixed at 1 in a 3-parameter fit. I is the compound concentration.
SMYD2 biochemical assay data for representative Compounds of the Disclosure are presented in Tables 1-3 in the column titled “SMYD2 Biochem IC50 (μM).”

T1 sequence (Q9NRG4 whole entry): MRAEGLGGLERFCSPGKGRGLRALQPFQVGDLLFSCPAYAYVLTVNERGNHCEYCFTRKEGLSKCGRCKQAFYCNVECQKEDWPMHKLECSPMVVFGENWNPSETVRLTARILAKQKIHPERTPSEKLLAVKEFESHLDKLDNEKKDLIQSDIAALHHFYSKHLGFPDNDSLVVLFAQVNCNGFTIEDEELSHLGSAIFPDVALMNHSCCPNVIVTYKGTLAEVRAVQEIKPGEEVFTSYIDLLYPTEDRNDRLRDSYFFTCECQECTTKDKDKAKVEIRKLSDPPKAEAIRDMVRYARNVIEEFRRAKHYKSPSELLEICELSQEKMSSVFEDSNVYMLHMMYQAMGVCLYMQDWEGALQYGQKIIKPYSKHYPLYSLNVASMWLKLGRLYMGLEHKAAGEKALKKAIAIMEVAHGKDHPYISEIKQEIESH

Point of comparison: CCN1C[C@@H](C)[C@H](NC(=O)c2cc(C3CC3)on2)C1 (racemic) [compound 88, (±)-trans-5-cyclopropyl-N-(1-ethyl-4-methylpyrrolidin-3-yl)isoxazole-3-carboxamide], IC50 34.2 µM. Against it:
- C[C@H]1CN(CCN)C[C@H]1NC(=O)c1cc(C2CC2)on1 (racemic) [compound 78, (±)-cis-N-(1-(2-aminoethyl)-4-methylpyrrolidin-3-yl)-5-cyclopropylisoxazole-3-carboxamide] — within 1.5-fold, 27.5 µM
- C[C@@H]1CN(C2CCN(C(=O)OC(C)(C)C)CC2)C[C@@H]1NC(=O)c1cc(C2CC2)on1 (racemic) [compound 80, (±)-cis-tert-butyl 4-(3-(5-cyclopropylisoxazole-3-carboxamido)-4-methylpyrrolidin-1-yl)piperidine-1-carboxylate] — within 1.5-fold, 30.5 µM
- C[C@@H]1CN(C2CCNCC2)C[C@@H]1NC(=O)c1cc(C2CC2)on1 (racemic) [compound 81, (±)-cis-5-cyclopropyl-N-(4-methyl-1-(piperidin-4-yl)pyrrolidin-3-yl)isoxazole-3-carboxamide] — higher, > 50 µM
- C[C@@H]1CN(C2CCN(C)CC2)C[C@@H]1NC(=O)c1cc(C2CC2)on1 (racemic) [compound 82, (±)-cis-5-cyclopropyl-N-(4-methyl-1-(1-methylpiperidin-4-yl)pyrrolidin-3-yl)isoxazole-3-carboxamide] — higher, > 50 µM
- CC(=O)N1CCC(N2C[C@@H](C)[C@@H](NC(=O)c3cc(C4CC4)on3)C2)CC1 (racemic) [compound 83, (±)-cis-N-(1-(1-acetylpiperidin-4-yl)-4-methylpyrrolidin-3-yl)-5-cyclopropylisoxazole-3-carboxamide] — higher, > 50 µM
- C[C@@H]1CN(Cc2cccnc2)C[C@H]1NC(=O)c1cc(C2CC2)on1 (racemic) [compound 84, (±)-trans-5-cyclopropyl-N-(4-methyl-1-(pyridin-3-ylmethyl)pyrrolidin-3-yl)isoxazole-3-carboxamide] — higher, > 50 µM
- C[C@@H]1CN(Cc2ccncc2)C[C@H]1NC(=O)c1cc(C2CC2)on1 (racemic) [compound 85, (±)-trans-5-cyclopropyl-N-(4-methyl-1-(pyridin-4-ylmethyl)pyrrolidin-3-yl)isoxazole-3-carboxamide] — higher, > 50 µM
- C[C@@H]1CN(Cc2ccccn2)C[C@H]1NC(=O)c1cc(C2CC2)on1 (racemic) [compound 87, (±)-trans-5-cyclopropyl-N-(4-methyl-1-(pyridin-2-ylmethyl)pyrrolidin-3-yl)isoxazole-3-carboxamide] — higher, > 50 µM
- CC(=O)N1C[C@@H](C)[C@H](NC(=O)c2cc(C3CC3)on2)C1 (racemic) [compound 89, (±)-trans-N-(1-acetyl-4-methylpyrrolidin-3-yl)-5-cyclopropylisoxazole-3-carboxamide] — higher, > 50 µM
- C[C@@H]1CN(S(C)(=O)=O)C[C@H]1NC(=O)c1cc(C2CC2)on1 (racemic) [compound 90, (±)-trans-5-cyclopropyl-N-(4-methyl-1-(methylsulfonyl)pyrrolidin-3-yl)isoxazole-3-carboxamide] — higher, > 50 µM
- C[C@H]1CN(S(=O)(=O)C2CCNCC2)C[C@@H]1NC(=O)c1cc(C2CC2)on1 (racemic) [compound 91, (±)-trans-5-cyclopropyl-N-(4-methyl-1-(piperidin-4-ylsulfonyl)pyrrolidin-3-yl)isoxazole-3-carboxamide] — higher, > 50 µM
- C[C@H]1CN(C(=O)CN)C[C@@H]1NC(=O)c1cc(C2CC2)on1 (racemic) [compound 92, (±)-trans-5-cyclopropyl-N-(1-glycyl-4-methylpyrrolidin-3-yl)isoxazole-3-carboxamide] — higher, > 50 µM
- C[C@H]1CN(C(=O)CO)C[C@@H]1NC(=O)c1cc(C2CC2)on1 (racemic) [compound 93, (±)-trans-5-cyclopropyl-N-(1-(2-hydroxyacetyl)-4-methylpyrrolidin-3-yl)isoxazole-3-carboxamide] — higher, > 50 µM
- C[C@@H]1CN(C(=O)C2CCNCC2)C[C@H]1NC(=O)c1cc(C2CC2)on1 (racemic) [compound 94, (±)-trans-5-cyclopropyl-N-(4-methyl-1-(piperidine-4-carbonyl)pyrrolidin-3-yl)isoxazole-3-carboxamide] — higher, > 50 µM
- C[C@H]1CN(C(=O)CC2CCNCC2)C[C@@H]1NC(=O)c1cc(C2CC2)on1 (racemic) [compound 95, (±)-trans-5-cyclopropyl-N-(4-methyl-1-(2-(piperidin-4-yl)acetyl)pyrrolidin-3-yl)isoxazole-3-carboxamide] — higher, > 50 µM
- C[C@@H]1CN(C2CCCCC2)C[C@H]1NC(=O)c1cc(C2CC2)on1 (racemic) [compound 96, (±)-trans-N-(1-cyclohexyl-4-methylpyrrolidin-3-yl)-5-cyclopropylisoxazole-3-carboxamide] — higher, > 50 µM
- C[C@@H]1CN(C2CCOCC2)C[C@H]1NC(=O)c1cc(C2CC2)on1 (racemic) [compound 97, (±)-trans-5-cyclopropyl-N-(4-methyl-1-(tetrahydro-2H-pyran-4-yl)pyrrolidin-3-yl)isoxazole-3-carboxamide] — higher, > 50 µM
- C[C@@H]1CN(C2CCCC2)C[C@H]1NC(=O)c1cc(C2CC2)on1 (racemic) [compound 99, (±)-trans-N-(1-cyclopentyl-4-methylpyrrolidin-3-yl)-5-cyclopropylisoxazole-3-carboxamide] — within 1.5-fold, 48.7 µM
- C[C@@H]1CN(CCS(C)(=O)=O)C[C@H]1NC(=O)c1cc(C2CC2)on1 (racemic) [compound 100, (±)-trans-5-cyclopropyl-N-(4-methyl-1-(2-(methyl-sulfonyl)ethyl)pyrrolidin-3-yl)isoxazole-3-carboxamide] — higher, > 50 µM
- C[C@@H]1CN(CCN)C[C@H]1NC(=O)c1cc(C2CC2)on1 (racemic) [compound 101, (±)-trans-N-(1-(2-aminoethyl)-4-methylpyrrolidin-3-yl)-5-cyclopropylisoxazole-3-carboxamide] — higher, > 50 µM
- C[C@@H]1CN(C2CCN(C(=O)OC(C)(C)C)CC2)C[C@H]1NC(=O)c1cc(C2CC2)on1 (racemic) [compound 103, (±)-trans-tert-butyl 4-((3S,4R)-3-(5-cyclopropylisoxazole-3-carboxamido)-4-methylpyrrolidin-1-yl)piperidine-1-carboxylate] — higher, > 50 µM
- C[C@@H]1CN(C2CCNCC2)C[C@H]1NC(=O)c1cc(C2CC2)on1 (racemic) [compound 104, (±)-trans-5-cyclopropyl-N-((3S,4R)-4-methyl-1-(piperidin-4-yl)pyrrolidin-3-yl)isoxazole-3-carboxamide] — higher, > 50 µM
- C[C@@H]1CN(C2CCN(C)CC2)C[C@H]1NC(=O)c1cc(C2CC2)on1 (racemic) [compound 105, (±)-trans-5-cyclopropyl-N-((3S,4R)-4-methyl-1-(1-methylpiperidin-4-yl)pyrrolidin-3-yl)isoxazole-3-carboxamide] — higher, > 50 µM
- CC(=O)N1CCC(N2C[C@@H](C)[C@H](NC(=O)c3cc(C4CC4)on3)C2)CC1 (racemic) [compound 106, (±)-trans-N-(1-(1-acetylpiperidin-4-yl)-4-methylpyrrolidin-3-yl)-5-cyclopropylisoxazole-3-carboxamide] — higher, > 50 µM
- C[C@H]1CN(Cc2cccnc2)C[C@H]1NC(=O)c1cc(C2CC2)on1 (racemic) [compound 107, (±)-cis-5-cyclopropyl-N-(4-methyl-1-(pyridin-3-ylmethyl)pyrrolidin-3-yl)isoxazole-3-carboxamide] — 1.9-fold lower, 17.7 µM
